Patent US20230338297A1, “Encapsulated Agents that Bind to MCT-1” (THE JOHNS HOPKINS UNIVERSITY, priority 2020, published 2023)

Legend:
MCT-1 = target: T1, MCT-1 (Homo sapiens, UniProt P53985); type: cell-based
T1 construct: endogenous in cells
T1 sequence (P53985 1-500): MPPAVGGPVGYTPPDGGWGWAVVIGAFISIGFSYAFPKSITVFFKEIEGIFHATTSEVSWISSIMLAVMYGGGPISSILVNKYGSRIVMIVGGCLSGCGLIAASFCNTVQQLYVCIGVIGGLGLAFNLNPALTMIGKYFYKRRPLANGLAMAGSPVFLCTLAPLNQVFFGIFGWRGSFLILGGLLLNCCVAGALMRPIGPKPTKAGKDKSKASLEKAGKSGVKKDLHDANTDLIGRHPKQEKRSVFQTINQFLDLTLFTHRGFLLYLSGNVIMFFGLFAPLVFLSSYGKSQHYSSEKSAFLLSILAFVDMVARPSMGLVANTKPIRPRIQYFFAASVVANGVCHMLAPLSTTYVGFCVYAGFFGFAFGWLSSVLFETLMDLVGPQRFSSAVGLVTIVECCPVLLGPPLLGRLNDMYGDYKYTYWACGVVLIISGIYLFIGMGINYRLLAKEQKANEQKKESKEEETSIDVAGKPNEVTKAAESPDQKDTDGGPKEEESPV
T1 sequence (P35613 140-385 partner limits assumed): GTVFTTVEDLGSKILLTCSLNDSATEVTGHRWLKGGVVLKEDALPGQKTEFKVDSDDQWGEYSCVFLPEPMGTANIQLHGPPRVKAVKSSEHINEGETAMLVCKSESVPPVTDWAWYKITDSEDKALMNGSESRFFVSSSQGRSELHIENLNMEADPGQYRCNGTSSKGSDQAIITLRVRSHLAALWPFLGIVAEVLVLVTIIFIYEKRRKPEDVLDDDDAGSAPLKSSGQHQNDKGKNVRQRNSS
Excerpt: To gain insight into this lack of sensitivity, the expression levels of three cell surface channels, GLUT-1 (Yu, M. et al. The prognostic value of GLUT1 in cancers: a systematic review and meta-analysis. Oncotarget 8, 43356-43367, doi:10.18632/oncotarget.17445 (2017)), MCT-1 and MCT-4 (Hong, C. S. et al. MCT1 Modulates Cancer Cell Pyruvate Export and Growth of Tumors that Co-express MCT1 and MCT4. Cell Reports 14, 1590-1601, doi:10.1016/j.celrep.2016.01.057 (2016)) were compared in all 7 pancreatic cancer cell lines using RNA expression atlas (FIG. 4A). While neither GLUT1 (primarily responsible for glucose uptake and therefore, the FDG-PET positive phenotype) nor MCT-4 expression levels of CFPAC-1 were lower than other cell lines in the panel, expression levels of MCT-1 in CFPAC-1 (22 TPM) was nearly three-fold lower than the next lowest expressor (BxPC-3, 64 TPM) in the cell line panel (FIG. 4B). […]

DLD-1 parental cells = experiment: effect of MCT-1 loss on sensitivity: DLD-1 parental cells; type: cell-based, human; details: 0-200 uM
Protocol: (§1) The Alt-R CRISPR system (Integrated DNA Technologies, IDT) was used to delete SLC16A1, the gene encoding for the MCT-1 protein, in the DLD-1 and MiaPaCa-2 cell lines. The gRNA sequence was designed using CHOPCHOP v.3 12. Briefly, Alt-R CRISPR Cas9 crRNAs ([…], IDT; SEQ ID NO:1) and Alt-R CRISPR-Cas9 tracrRNA (1072532, IDT) were re-suspended at 100 μM with Nuclease-Free Duplex Buffer (IDT). The crRNAs and tracrRNA were mixed at a 1:1 molar ratio and denatured for 5 min at 95° C., followed by slow cooling to room temperature to duplex prior to mixing with Cas9 Nuclease (1081059, IDT) at a 1.2:1 molar ratio for 15 min. Forty pmoles of the Cas9 ribonucleoprotein (RNP) containing tracrRNA/MCT-1 crRNA duplex were mixed with 2×10^5 DLD-1 cells in 20 μL of OptiMEM (31985088, ThermoFisher Scientific). This mixture was loaded into a 0.1 cm cuvette (1652089, Bio Rad) and electroporated at 120 V for 16 ms using an ECM 2001 (Harvard Apparatus). Cells were immediately transferred to complete growth medium and cultured for one week. Upon reaching confluence, polyclonal pools were plated at a density of 0.5 to 2 cells per well in 96-well plates and cultured for 3 weeks. Single colonies were transferred into 2 replica 96-well plates. […]

MiaPaCa-2 cells = experiment: rapid induction of cell death, timed exposure and washout of MiaPaCa-2 cells; type: cell-based, human
Protocol: Representative pancreatic cancer cells MiaPaCa-2 (MCT-1: 163 TPM, Expression Atlas) were plated in a 96 well plate at 12,000 cells/well. These cells were then exposed to a 2-fold dilution series of sCD-3BP and free 3BP for different amounts of time (exposure time: 15 minutes, 30 minutes, 1 hour, 2 hours, 4 hours and 8 hours) and their outcome recorded by Incucyte® Live-Cell Analysis Systems, over 36 hours. After the desired timed exposure, cells were washed with PBS and fresh media was added to ensure no more drug persisted in the respective wells. […] The IC50 of both agents was calculated to be 84-90 uM when cells were exposed to the drug for only 15 minutes. […] While treated cells looked initially healthy following drug washout, cell death became discernable 24 hours post exposure.

[1] = stability of CD-3BP complexes and free 3BP in sera, residual 3BP by cell toxicity assay (HCT-116); type: in vitro ADME, human; details: incubated with sera at 37° C. for up to 8 hours
Excerpt: However, how microencapsulation in CD alters the solubility and stability of 3BP and whether chemical modifications of CDs can alter physicochemical characteristics of the drug remains unclear. To address these questions and clarify the biological effect of microencapsulation, an assay was designed to estimate the stability of various CD-3BP complexes when compared to free 3BP in human sera.
Two different types of complexes, the previously used sCD-3BP (Chapiro, J. et al., Clinical cancer research: An official journal of the American Association for Cancer Research 20, 6406-6417, doi:10.1158/1078-0432.ccr-14-1271 (2014)) and newly generated HPCD-3BP were compared side-by-side. […] Aliquots were collected at various time points and assessed for residual 3BP by a cell toxicity assay. […]
Free 3BP, sCD-3BP and HPCD-3BP were incubated at various concentrations (12.5 μM, 25 μM, 50 μM, 100 μM and 200 μM) with 90 μL of mouse sera at 37° C. for up to 8 hours. […] Un-degraded biologically active 3BP at each time was then assessed by a cell toxicity assay. […] Cell death was measured by imaging cells after 72 hours using the IncuCyte® Live Cell-Analysis System (Essen Bioscience) and using the CellTox™ Green Cytotoxicity Assay (Promega), following the manufacturer's recommendation. […]

DLD-1 MCT-1(-) cells = experiment: effect of MCT-1 loss on sensitivity: DLD-1 MCT-1(-) knock-out cells; type: cell-based, human; details: even at 200 uM
Protocol: as §1

| SMILES | rescue of cells from CD-3BP mediated cytotoxicity (MCT-1) | cell death (DLD-1 parental cells) | potency at killing MiaPaCa-2 cells, sCD-3BP compared with 3BP (MiaPaCa-2 cells) | stability / protection against degradation in sera ([1]; listed as Free 3BP) | stability / protection against degradation in sera ([1]; listed as free 3BP) | loss of viability (DLD-1 MCT-1(-) cells) |
| --- | --- | --- | --- | --- | --- | --- |
| Cc1[nH]nc(C(F)(F)F)c1Cc1sc2c(c1C(=O)N1C[C@](C)(O)CO1)c(=O)n(C)c(=O)n2C(C)C [AZD3965] | clear dose dependent rescue | – | – | – | – | – |
| O=C(O)C(=O)CBr [3BP, 3-bromopyruvate] | – | dramatic cell death | equally potent | rapidly degraded | rapid degradation | no loss of viability |
